Data from patent US11834414B2, “1-methyl-4-[(4-phenylphenyl)sulfonylmethyl]cyclohexyanol and 1-methyl-4-[[4-(2-pyridyl)phenyl]sulfonylmethyl]cyclohexanol compounds and their therapeutic use” (Modern Biosciences Limited, priority 2018, dated 2023).

How the values were obtained:
CYP2C9 = CYP2C9 (Homo sapiens (Human), UniProt P11712); experiment: Human Cytochrome P450 Inhibition Assay (Bactosomes); assay type: in vitro ADME; conditions: recombinant Bactosomes, 10 minutes, 37° C.
CYP1A2 = CYP1A2 (Homo sapiens (Human), UniProt P05177); experiment: as above
Rat hepatocyte stability = assay type: in vitro ADME; conditions: rat, pooled rat hepatocytes, 60 minute incubation; for hepatocyte CLint at 1 μM: read-out: Rat Clint (μL/min/million cells); for half-life at 1 μM: read-out: Rat t1/2
Procedure, shortened: (§1)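 Compounds (1 μM final, 0.1% DMSO, 0.9% acetonitrile) were incubated in duplicate with pooled rat or human hepatocytes at 37° C, sampled at 0–60 min and quenched with methanol. Remaining parent was measured by LC-MS/MS. Elimination rate constant came from the ln(concentration)–time slope, giving t1/2 and CLint scaled to hepatocyte concentration.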

CYP2D6 = CYP2D6 (Homo sapiens (Human), UniProt P10635); experiment: Human Cytochrome P450 Inhibition Assay (Bactosomes); assay type: in vitro ADME; conditions: recombinant Bactosomes, 10 minutes, 37° C.
hERG ion channel = hERG ion channel (Homo sapiens (Human), UniProt Q12809); experiment: hERG Ion Channel Assay; assay type: cell-based; conditions: for hERG cardiac safety profile (in words): compared to reference compounds such as ABD599 and ABD899; for IC50: hERG ion channel activity, hERG-CHO cells
Protocol: When the ability of hERG to conduct electrical current across the cell membrane is inhibited or compromised, it can result in a potentially fatal disorder called long QT syndrome. This association between hERG and long QT syndrome has made hERG inhibition an important anti-target that must be avoided during drug development.
The activity of the compounds against the hERG ion channel was tested using two approaches: a binding assay and an automated patch-clamp, Q-patch method using stably transfected Chinese Hamster Ovary cells (hERG-CHO). hERG-CHO cells were cultured in F-12 Kaighn's Nutrient Mixture medium (Invitrogen)+10% FBS at 37° C. for 1-3 days. Cells were kept at 30° C. for 24 to 48 hours prior to patch clamping in order to increase the hERG current amplitude. Subsequently, the cells were harvested by trypsinisation, and kept in Serum Free Medium (SFM) in the Q-patch cell preparation state for up to 6 hours at room temperature before being washed and re-suspended in extracellular solution and applied to the patch clamp sites for data recording.
Patch-clamp voltage protocol: After whole cell configuration was achieved, the cell was held at −80 mV. A 50 millisecond pulse to −40 mV was delivered to measure the leaking current, which was subtracted from the tail current on-line. Then the cell was depolarized to +20 mV for 2 seconds, followed by a one second pulse to −40 mV to reveal hERG tail current. This paradigm was delivered once every 5 seconds to monitor the current amplitude.
Extracellular solution: 137 mM NaCl, 4 mM KCl, 1.8 mM CaCl2), 1 mM MgCl2, 10 mM D(+)-glucose, 10 mM HEPES buffer (pH adjusted to 7.4 with NaOH).
After the whole cell configuration was achieved, the extracellular solution (control) was applied first and the cell was stabilized for 2 minutes in extracellular solution. The test compound was then applied from low concentrations to high concentrations cumulatively. The cell was incubated with each test concentration for 5 minutes. During each incubation, the cell was repetitively stimulated using the voltage protocol described above, and the tail current amplitude was continuously monitored.
Acceptance Criteria: • (1) Peak tail current >100 pA in control. • (2) Initial run-down <30% and the run-down stops before first application of the test compound. • (3) Leak currents <50% of the control peak tail currents at any time. • (4) rs<20 MΩ throughout the experiment.
The degree of inhibition (%) was obtained by measuring the tail current amplitude, induced by a one second test pulse to −40 mV after a two second pulse to +20 mV, before and after incubation with the test compound. The difference in current was normalized to control and multiplied by 100 in order to obtain the percent inhibition.
Concentration (log) response curves were fitted to a logistic equation (three parameters assuming complete block of the current at very high test compound concentrations) to generate estimates of the 50% inhibitory concentration (IC50). The concentration-response relationship of each compound was constructed from the percentage reductions of current amplitude by sequential concentrations.

human hepatocytes = experiment: Human hepatocyte stability; assay type: in vitro ADME; conditions: hepatocyte stability, compared to the reference compounds
Procedure, shortened: as §1

[1] = Human hepatocyte stability; assay type: in vitro ADME; conditions: human, pooled human hepatocytes, human hepatocytes, 1 μM, 60 minute incubation; for hepatocyte CLint at 1 μM: read-out: Human Clint (uL/min/million cells); for half-life at 1 μM: read-out: Human t1/2
Procedure, shortened: as §1

Chain of hERG ion channel (Q12809 whole entry): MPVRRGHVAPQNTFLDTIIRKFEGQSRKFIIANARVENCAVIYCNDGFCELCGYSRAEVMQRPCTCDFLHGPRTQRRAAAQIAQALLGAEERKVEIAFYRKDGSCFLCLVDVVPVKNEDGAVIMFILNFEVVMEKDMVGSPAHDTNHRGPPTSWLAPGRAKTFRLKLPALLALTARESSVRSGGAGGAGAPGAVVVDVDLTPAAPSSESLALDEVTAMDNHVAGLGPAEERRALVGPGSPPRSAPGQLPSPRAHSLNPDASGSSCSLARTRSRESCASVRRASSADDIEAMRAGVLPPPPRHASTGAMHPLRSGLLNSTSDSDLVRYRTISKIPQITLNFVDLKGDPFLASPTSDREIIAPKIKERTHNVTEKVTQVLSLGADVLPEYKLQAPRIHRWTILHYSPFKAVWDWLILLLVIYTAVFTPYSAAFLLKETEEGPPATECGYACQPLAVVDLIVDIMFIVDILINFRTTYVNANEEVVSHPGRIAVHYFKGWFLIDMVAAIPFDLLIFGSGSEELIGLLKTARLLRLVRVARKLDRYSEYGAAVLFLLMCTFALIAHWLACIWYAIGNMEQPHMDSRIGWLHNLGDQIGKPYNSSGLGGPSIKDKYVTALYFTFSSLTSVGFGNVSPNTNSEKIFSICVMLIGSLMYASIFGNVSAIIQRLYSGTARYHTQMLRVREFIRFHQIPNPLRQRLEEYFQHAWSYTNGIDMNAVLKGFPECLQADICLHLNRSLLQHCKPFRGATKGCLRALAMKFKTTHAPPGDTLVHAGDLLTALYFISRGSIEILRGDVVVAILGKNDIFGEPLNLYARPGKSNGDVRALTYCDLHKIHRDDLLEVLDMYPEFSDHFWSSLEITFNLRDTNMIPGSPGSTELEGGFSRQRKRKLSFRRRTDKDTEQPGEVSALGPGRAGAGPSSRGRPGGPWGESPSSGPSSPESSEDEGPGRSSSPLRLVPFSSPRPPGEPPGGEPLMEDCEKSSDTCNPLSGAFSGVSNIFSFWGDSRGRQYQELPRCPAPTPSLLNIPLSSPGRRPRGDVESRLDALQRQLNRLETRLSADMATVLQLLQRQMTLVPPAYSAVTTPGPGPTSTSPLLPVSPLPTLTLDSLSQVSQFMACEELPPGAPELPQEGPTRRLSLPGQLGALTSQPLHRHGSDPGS
Chain of CYP2D6 (P10635 whole entry): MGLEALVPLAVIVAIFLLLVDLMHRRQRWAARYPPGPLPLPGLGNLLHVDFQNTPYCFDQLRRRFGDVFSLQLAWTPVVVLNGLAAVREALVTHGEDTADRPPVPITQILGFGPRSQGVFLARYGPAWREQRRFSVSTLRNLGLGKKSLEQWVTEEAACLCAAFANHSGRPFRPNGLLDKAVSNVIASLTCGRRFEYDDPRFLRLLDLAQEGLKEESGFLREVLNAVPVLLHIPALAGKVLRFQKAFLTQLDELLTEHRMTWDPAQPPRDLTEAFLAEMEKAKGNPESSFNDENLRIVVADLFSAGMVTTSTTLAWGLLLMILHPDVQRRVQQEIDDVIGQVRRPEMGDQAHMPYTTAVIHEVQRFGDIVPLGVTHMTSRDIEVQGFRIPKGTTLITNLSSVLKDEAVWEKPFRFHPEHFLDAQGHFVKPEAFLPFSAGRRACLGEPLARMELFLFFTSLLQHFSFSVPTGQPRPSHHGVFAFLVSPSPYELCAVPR
Chain of CYP2C9 (P11712 whole entry): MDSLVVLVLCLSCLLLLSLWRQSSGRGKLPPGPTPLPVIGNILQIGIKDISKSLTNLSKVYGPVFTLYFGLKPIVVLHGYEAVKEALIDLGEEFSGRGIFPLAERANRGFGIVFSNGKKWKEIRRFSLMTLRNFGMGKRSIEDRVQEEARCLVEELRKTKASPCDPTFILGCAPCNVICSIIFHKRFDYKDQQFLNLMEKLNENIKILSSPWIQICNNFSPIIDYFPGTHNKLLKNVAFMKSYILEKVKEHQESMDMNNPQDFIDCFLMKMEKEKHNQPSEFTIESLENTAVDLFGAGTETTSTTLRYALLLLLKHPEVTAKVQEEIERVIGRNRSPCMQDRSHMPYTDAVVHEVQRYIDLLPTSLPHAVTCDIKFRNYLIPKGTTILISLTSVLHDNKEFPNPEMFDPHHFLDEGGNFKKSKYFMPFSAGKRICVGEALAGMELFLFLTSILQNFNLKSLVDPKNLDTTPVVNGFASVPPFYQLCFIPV
Chain of CYP1A2 (P05177 whole entry): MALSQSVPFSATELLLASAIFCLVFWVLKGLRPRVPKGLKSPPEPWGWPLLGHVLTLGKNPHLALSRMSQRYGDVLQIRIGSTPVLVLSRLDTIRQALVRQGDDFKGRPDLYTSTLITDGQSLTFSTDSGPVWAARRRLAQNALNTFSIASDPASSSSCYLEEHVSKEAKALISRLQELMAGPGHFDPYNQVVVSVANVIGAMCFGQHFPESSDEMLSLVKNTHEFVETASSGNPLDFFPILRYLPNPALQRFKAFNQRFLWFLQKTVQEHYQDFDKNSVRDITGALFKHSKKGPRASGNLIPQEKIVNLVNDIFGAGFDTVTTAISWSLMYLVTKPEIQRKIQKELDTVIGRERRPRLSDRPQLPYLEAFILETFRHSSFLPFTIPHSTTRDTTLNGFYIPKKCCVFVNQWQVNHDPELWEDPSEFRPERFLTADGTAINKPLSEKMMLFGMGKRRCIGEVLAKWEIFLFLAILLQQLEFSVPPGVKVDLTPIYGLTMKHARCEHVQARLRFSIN

Row | Structure (SMILES) | IC50 (CYP2C9) | IC50 (CYP1A2) | hepatocyte CLint at 1 μM (Rat hepatocyte stability) | half-life at 1 μM (Rat hepatocyte stability) | IC50 (CYP2D6) | hERG cardiac safety profile (in words) (hERG ion channel) | IC50 (hERG ion channel) | metabolic stability (in words) (human hepatocytes) | hepatocyte CLint at 1 μM [1] | half-life at 1 μM [1]
1 | C[C@]1(O)CC[C@@H](CS(=O)(=O)c2ccc(-c3ncc(F)cc3F)c(F)c2)CC1 [CHMSA-03-A, cis-4-(((4-(3,5-difluoropyridin-2-yl)-3-fluorophenyl)sulfonyl)methyl)-1-methylcyclohexan-1-ol] | 14.7 µM | > 50 µM | 14.4 µL/min/1e6 cells | 91.2 min | > 50 µM | particularly positive profile | > 100 µM | exceptionally good stability | < 3 µL/min/1e6 cells | > 460 min
2 | C[C@]1(O)CC[C@@H](CS(=O)(=O)c2ccc(-c3ccc(C#N)cc3F)cc2)CC1 [CHMSA-01-A, 2-fluoro-4′-(((cis-4-hydroxy-4-methylcyclohexyl)methyl)sulfonyl)-[1,1′-biphenyl]-4-carbonitrile] | 39.4 µM | > 50 µM | 12.4 µL/min/1e6 cells | 106 min | > 50 µM |  | 24 µM |  | 3.7 µL/min/1e6 cells | 355 min
3 | C[C@]1(O)CC[C@@H](CS(=O)(=O)c2ccc(-c3ccc(C#N)cc3F)cc2C(F)(F)F)CC1 [CHMSA-02-A, 2-fluoro-4′-(((cis-4-hydroxy-4-methylcyclohexyl)methyl)sulfonyl)-3′-(trifluoromethyl)-[1,1′-biphenyl]-4-carbonitrile] | > 50 µM | > 50 µM | 102 µL/min/1e6 cells | 13 min | > 50 µM | particularly positive profile | > 100 µM | exceptionally good stability | < 3.3 µL/min/1e6 cells | > 412 min
4 | C[C@]1(O)CC[C@H](NS(=O)(=O)c2ccc(-c3ccc(Cl)cc3C#N)cc2)CC1 [HMC-C-01-A, reference compound] | 21 µM | 25 µM | 188 µL/min/1e6 cells | 7 min | 16.6 µM |  |  |  | 7.6 µL/min/1e6 cells | 154 min
